In patent publication US6541450B1, “Parathyroid hormone analogues for the treatment of osteoporosis” (National Research Council of Canada, priority 1994, dated 2003):
pEC50: −log10 of the molar value. Where a SMILES comes first, the peptide text is derived from it. Bridges are numbered along the chain shown (N, C = ends). [ ]: non-standard residue; d: D form. Nle = CCCC[C@H](N)C(=O)O; Orn = NCCC[C@H](N)C(=O)O

Molecular target: T1, adenylyl cyclase, ROS 17/2 cells (Rattus norvegicus, UniProt P25961)
T1 sequence (P25961 27-591): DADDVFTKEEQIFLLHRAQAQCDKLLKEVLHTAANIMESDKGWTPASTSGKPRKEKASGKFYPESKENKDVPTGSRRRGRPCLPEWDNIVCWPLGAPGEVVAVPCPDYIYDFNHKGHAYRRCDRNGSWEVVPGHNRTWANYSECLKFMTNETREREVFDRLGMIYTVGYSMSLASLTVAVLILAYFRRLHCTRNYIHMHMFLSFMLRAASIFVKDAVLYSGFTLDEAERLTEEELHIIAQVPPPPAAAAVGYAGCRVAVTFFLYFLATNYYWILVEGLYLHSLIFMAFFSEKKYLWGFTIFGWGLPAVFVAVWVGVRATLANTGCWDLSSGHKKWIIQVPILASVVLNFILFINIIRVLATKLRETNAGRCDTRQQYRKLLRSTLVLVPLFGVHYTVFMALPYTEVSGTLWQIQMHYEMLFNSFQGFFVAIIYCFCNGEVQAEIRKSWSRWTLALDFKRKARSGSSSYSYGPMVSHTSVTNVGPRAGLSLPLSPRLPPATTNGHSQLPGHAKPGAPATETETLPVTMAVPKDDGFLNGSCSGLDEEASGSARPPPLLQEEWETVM
Assay: Adenylyl cyclase stimulation, [3H]-cyclic AMP production in ROS 17/2 cells
Assay type: cell-based
Conditions: ROS 17/2 cells; concentration for half-maximal increase in AC activity; read-out: Adenylyl Cyclase (EC50)

Row | SMILES | pEC50
1 | CC[C@H](C)[C@H](NC(=O)[C@H](CCC(=O)O)NC(=O)[C@H](CO)NC(=O)[C@@H](NC(=O)[C@@H](N)CO)C(C)C)C(=O)N[C@@H](CCC(N)=O)C(=O)N[C@@H](CC(C)C)C(=O)N[C@@H](CCSC)C(=O)N[C@@H](Cc1c[nH]cn1)C(=O)N[C@@H](CC(N)=O)C(=O)N[C@@H](CC(C)C)C(=O)NCC(=O)N[C@@H](CCCCN)C(=O)N[C@@H](Cc1c[nH]cn1)C(=O)N[C@@H](CC(C)C)C(=O)N[C@@H](CC(N)=O)C(=O)N[C@@H](CO)C(=O)N[C@@H](CCSC)C(=O)N[C@@H](CCC(=O)O)C(=O)N[C@@H](CCCNC(=N)N)C(=O)N[C@H](C(=O)N[C@H]1CSSC[C@@H](C(=O)N[C@@H](CC(C)C)C(=O)N[C@@H](CC(C)C)C(=O)N[C@@H](CCC(N)=O)C(=O)N[C@@H](CC(=O)O)C(=O)N[C@H](C(N)=O)C(C)C)NC(=O)[C@H](CCCNC(=N)N)NC(=O)[C@H](CC(C)C)NC(=O)[C@H](Cc2c[nH]c3ccccc23)NC1=O)C(C)C [[Cys^22, Cys^26, Leu^27]cyclo(Cys^22—Cys^26)—hPTH—(1-31)-NH2] (H-SVSEIQLMHNLGKHLNSMERVCWLRCLLQDV-NH2; disulfide 22-26) | 7.80
2 | CC[C@H](C)[C@H](NC(=O)[C@H](CCC(=O)O)NC(=O)[C@H](CO)NC(=O)[C@@H](NC(=O)[C@@H](N)CO)C(C)C)C(=O)N[C@@H](CCC(N)=O)C(=O)N[C@@H](CC(C)C)C(=O)N[C@@H](CCSC)C(=O)N[C@@H](Cc1c[nH]cn1)C(=O)N[C@@H](CC(N)=O)C(=O)N[C@@H](CC(C)C)C(=O)NCC(=O)N[C@@H](CCCCN)C(=O)N[C@@H](Cc1c[nH]cn1)C(=O)N[C@@H](CC(C)C)C(=O)N[C@@H](CC(N)=O)C(=O)N[C@@H](CO)C(=O)N[C@@H](CCSC)C(=O)N[C@@H](CCC(=O)O)C(=O)N[C@@H](CCCNC(=N)N)C(=O)N[C@H](C(=O)N[C@@H](CCC(=O)O)C(=O)N[C@@H](Cc1c[nH]c2ccccc12)C(=O)N[C@@H](CC(C)C)C(=O)N[C@@H](CCCNC(=N)N)C(=O)N[C@H]1CSSC[C@@H](C(=O)N[C@H](C(N)=O)C(C)C)NC(=O)[C@H](CCC(N)=O)NC(=O)[C@H](CC(C)C)NC(=O)[C@H](CC(C)C)NC1=O)C(C)C [[Cys^26, Cys^30, Leu^27]cyclo(Cys^26—Cys^30)—hPTH—(1-31)-NH2] (H-SVSEIQLMHNLGKHLNSMERVEWLRCLLQCV-NH2; disulfide 26-30) | 7.62
3 | CC[C@H](C)[C@H](NC(=O)[C@H](CCC(=O)O)NC(=O)[C@H](CO)NC(=O)[C@@H](NC(=O)[C@@H](N)CO)C(C)C)C(=O)N[C@@H](CCC(N)=O)C(=O)N[C@@H](CC(C)C)C(=O)N[C@@H](CCSC)C(=O)N[C@@H](Cc1c[nH]cn1)C(=O)N[C@@H](CC(N)=O)C(=O)N[C@@H](CC(C)C)C(=O)NCC(=O)N[C@@H](CCCCN)C(=O)N[C@@H](Cc1c[nH]cn1)C(=O)N[C@@H](CC(C)C)C(=O)N[C@@H](CC(N)=O)C(=O)N[C@@H](CO)C(=O)N[C@@H](CCSC)C(=O)N[C@@H](CCC(=O)O)C(=O)N[C@@H](CCCNC(=N)N)C(=O)N[C@H](C(=O)N[C@H]1CC(=O)NCCC[C@@H](C(=O)N[C@@H](CC(C)C)C(=O)N[C@@H](CC(C)C)C(=O)N[C@@H](CCC(N)=O)C(=O)N[C@@H](CC(=O)O)C(=O)N[C@H](C(N)=O)C(C)C)NC(=O)[C@H](CCCNC(=N)N)NC(=O)[C@H](CC(C)C)NC(=O)[C@H](Cc2c[nH]c3ccccc23)NC1=O)C(C)C [[Leu^27]cyclo(Asp^22—Orn^26)—hPTH—(1-31)-NH2] (H-SVSEIQLMHNLGKHLNSMERVDWLR[Orn]LLQDV-NH2; lactam 22-26; N-terminus assumed) | < 6.70
4 | CC[C@H](C)[C@H](NC(=O)[C@H](CCC(=O)O)NC(=O)[C@H](CO)NC(=O)[C@@H](NC(=O)[C@@H](N)CO)C(C)C)C(=O)N[C@@H](CCC(N)=O)C(=O)N[C@@H](CC(C)C)C(=O)N[C@@H](CCSC)C(=O)N[C@@H](Cc1c[nH]cn1)C(=O)N[C@@H](CC(N)=O)C(=O)N[C@@H](CC(C)C)C(=O)NCC(=O)N[C@@H](CCCCN)C(=O)N[C@@H](Cc1c[nH]cn1)C(=O)N[C@@H](CC(C)C)C(=O)N[C@@H](CC(N)=O)C(=O)N[C@@H](CO)C(=O)N[C@@H](CCSC)C(=O)N[C@@H](CCC(=O)O)C(=O)N[C@@H](CCCNC(=N)N)C(=O)N[C@H](C(=O)N[C@H]1CCC(=O)NCCCC[C@@H](C(=O)N[C@@H](Cc2ccc(O)cc2)C(=O)N[C@@H](CC(C)C)C(=O)N[C@@H](CCC(N)=O)C(=O)N[C@@H](CC(=O)O)C(=O)N[C@H](C(N)=O)C(C)C)NC(=O)[C@H](CCCNC(=N)N)NC(=O)[C@H](CC(C)C)NC(=O)[C@H](Cc2c[nH]c3ccccc23)NC1=O)C(C)C [[Tyr^27]cyclo(Glu^22—Lys^26)—hPTH—(1-31)-NH2] (H-SVSEIQLMHNLGKHLNSMERVEWLRKYLQDV-NH2; lactam 22-26; N-terminus assumed) | 8.05
5 | CC[C@H](C)[C@H](NC(=O)[C@H](CCC(=O)O)NC(=O)[C@H](CO)NC(=O)[C@@H](NC(=O)[C@@H](N)CO)C(C)C)C(=O)N[C@@H](CCC(N)=O)C(=O)N[C@@H](CC(C)C)C(=O)N[C@@H](CCSC)C(=O)N[C@@H](Cc1c[nH]cn1)C(=O)N[C@@H](CC(N)=O)C(=O)N[C@@H](CC(C)C)C(=O)NCC(=O)N[C@@H](CCCCN)C(=O)N[C@@H](Cc1c[nH]cn1)C(=O)N[C@@H](CC(C)C)C(=O)N[C@@H](CC(N)=O)C(=O)N[C@@H](CO)C(=O)N[C@@H](CCSC)C(=O)N[C@@H](CCC(=O)O)C(=O)N[C@@H](CCCNC(=N)N)C(=O)N[C@H](C(=O)N[C@H]1CCC(=O)NCCCC[C@@H](C(=O)N[C@@H](CCCCN)C(=O)N[C@@H](CC(C)C)C(=O)N[C@@H](CCC(N)=O)C(=O)N[C@@H](CC(=O)O)C(=O)N[C@H](C(N)=O)C(C)C)NC(=O)[C@H](CCCNC(=N)N)NC(=O)[C@H](CC(C)C)NC(=O)[C@H](Cc2c[nH]c3ccccc23)NC1=O)C(C)C [cyclo(Glu^22—Lys^26)—hPTH—(1-31)-NH2] | 7.77

The next lines start with the values.

Row | pEC50 | SMILES
6 | 8.22 | CC[C@H](C)[C@H](NC(=O)[C@H](CCC(=O)O)NC(=O)[C@H](CO)NC(=O)[C@@H](NC(=O)[C@@H](N)CO)C(C)C)C(=O)N[C@@H](CCC(N)=O)C(=O)N[C@@H](CC(C)C)C(=O)N[C@@H](CCSC)C(=O)N[C@@H](Cc1c[nH]cn1)C(=O)N[C@@H](CC(N)=O)C(=O)N[C@@H](CC(C)C)C(=O)NCC(=O)N[C@@H](CCCCN)C(=O)N[C@@H](Cc1c[nH]cn1)C(=O)N[C@@H](CC(C)C)C(=O)N[C@@H](CC(N)=O)C(=O)N[C@@H](CO)C(=O)N[C@@H](CCSC)C(=O)N[C@@H](CCC(=O)O)C(=O)N[C@@H](CCCNC(=N)N)C(=O)N[C@H](C(=O)N[C@H]1CCC(=O)NCCCC[C@@H](C(=O)N[C@@H](CC(C)C)C(=O)N[C@@H](CC(C)C)C(=O)N[C@@H](CCC(N)=O)C(=O)N[C@@H](CC(=O)O)C(=O)N[C@H](C(=O)N[C@@H](Cc2c[nH]cn2)C(=O)N[C@@H](CC(N)=O)C(=O)N[C@@H](Cc2ccccc2)C(=O)O)C(C)C)NC(=O)[C@H](CCCNC(=N)N)NC(=O)[C@H](CC(C)C)NC(=O)[C@H](Cc2c[nH]c3ccccc23)NC1=O)C(C)C [[Leu^27]cyclo(Glu^22—Lys^26)—hPTH—(1-34)-OH] (H-SVSEIQLMHNLGKHLNSMERVEWLRKLLQDVHNF-OH; lactam 22-26; N-terminus assumed)
7 | 8.22 | CCCC[C@H](NC(=O)[C@H](CO)NC(=O)[C@H](CC(N)=O)NC(=O)[C@H](CC(C)C)NC(=O)[C@H](Cc1c[nH]cn1)NC(=O)[C@H](CCCCN)NC(=O)CNC(=O)[C@H](CC(C)C)NC(=O)[C@H](CC(N)=O)NC(=O)[C@H](Cc1c[nH]cn1)NC(=O)[C@H](CCCC)NC(=O)[C@H](CC(C)C)NC(=O)[C@H](CCC(N)=O)NC(=O)[C@@H](NC(=O)[C@H](CCC(=O)O)NC(=O)[C@H](CO)NC(=O)[C@@H](NC(=O)[C@@H](N)CO)C(C)C)[C@@H](C)CC)C(=O)N[C@@H](CCC(=O)O)C(=O)N[C@@H](CCCNC(=N)N)C(=O)N[C@H](C(=O)N[C@H]1CCC(=O)NCCCC[C@@H](C(=O)N[C@@H](CC(C)C)C(=O)N[C@@H](CC(C)C)C(=O)N[C@@H](CCC(N)=O)C(=O)N[C@@H](CC(=O)O)C(=O)N[C@H](C(N)=O)C(C)C)NC(=O)[C@H](CCCNC(=N)N)NC(=O)[C@H](CC(C)C)NC(=O)[C@H](Cc2c[nH]c3ccccc23)NC1=O)C(C)C [[Nle^8.18, Leu^27]cyclo(Glu^22—Lys^26)—hPTH—(1-31)-NH2] (H-SVSEIQL[Nle]HNLGKHLNS[Nle]ERVEWLRKLLQDV-NH2; lactam 22-26; N-terminus assumed)
8 | 8.05 | CCCC[C@H](NC(=O)[C@@H]1CCCCNC(=O)CC[C@H](NC(=O)[C@@H](NC(=O)[C@H](CCCNC(=N)N)NC(=O)[C@H](CCC(=O)O)NC(=O)[C@H](CCSC)NC(=O)[C@H](CO)NC(=O)[C@H](CC(N)=O)NC(=O)[C@H](CC(C)C)NC(=O)[C@H](Cc2c[nH]cn2)NC(=O)[C@H](CCCCN)NC(=O)CNC(=O)[C@H](CC(C)C)NC(=O)[C@H](CC(N)=O)NC(=O)[C@H](Cc2c[nH]cn2)NC(=O)[C@H](CCSC)NC(=O)[C@H](CC(C)C)NC(=O)[C@H](CCC(N)=O)NC(=O)[C@@H](NC(=O)[C@H](CCC(=O)O)NC(=O)[C@H](CO)NC(=O)[C@@H](NC(=O)[C@@H](N)CO)C(C)C)[C@@H](C)CC)C(C)C)C(=O)N[C@@H](Cc2c[nH]c3ccccc23)C(=O)N[C@@H](CC(C)C)C(=O)N[C@@H](CCCNC(=N)N)C(=O)N1)C(=O)N[C@@H](CC(C)C)C(=O)N[C@@H](CCC(N)=O)C(=O)N[C@@H](CC(=O)O)C(=O)N[C@H](C(N)=O)C(C)C [[Nle^27]cyclo(Glu^22—Lys^26)—hPTH—(1-31)-NH2] (H-SVSEIQLMHNLGKHLNSMERVEWLRK[Nle]LQDV-NH2; lactam 22-26)
